Results on ten molecules are retold here after patent publication US20250154198A1, “PEPTIDE INHIBITORS OF INTERLEUKIN-23 RECEPTOR” (Zealand Pharma A/S, priority 2021, published 2025).

The assay addresses T1, human IL-23R (Homo sapiens, UniProt Q5VWK5).
T1 construct: UniProtKB—Q5VWK5, amino acids 22-629; secretion signal of the plasmid (Promega N1371); expressed in transfected cells
T1 sequence (Q5VWK5 22-629): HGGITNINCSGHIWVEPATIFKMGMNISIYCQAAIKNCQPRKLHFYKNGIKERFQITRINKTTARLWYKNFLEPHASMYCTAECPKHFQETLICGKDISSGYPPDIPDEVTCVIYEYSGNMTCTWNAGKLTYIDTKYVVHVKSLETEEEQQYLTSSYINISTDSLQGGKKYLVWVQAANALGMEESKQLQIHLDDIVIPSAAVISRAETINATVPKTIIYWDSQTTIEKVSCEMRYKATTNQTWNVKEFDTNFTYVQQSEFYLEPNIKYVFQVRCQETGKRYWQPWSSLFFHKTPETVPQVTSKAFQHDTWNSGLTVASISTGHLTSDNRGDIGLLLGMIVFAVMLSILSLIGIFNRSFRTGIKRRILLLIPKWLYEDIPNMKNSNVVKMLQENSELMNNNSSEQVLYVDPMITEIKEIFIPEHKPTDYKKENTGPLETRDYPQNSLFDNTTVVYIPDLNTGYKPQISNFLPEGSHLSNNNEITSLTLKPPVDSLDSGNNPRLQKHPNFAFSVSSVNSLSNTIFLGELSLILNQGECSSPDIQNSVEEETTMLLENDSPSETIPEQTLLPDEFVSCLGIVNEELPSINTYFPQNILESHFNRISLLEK
Nature of the assay: Binding assay (NanoBRET displacement of fluorophore-labelled reference compound) for estimating binding affinity to human IL-23R. From the text:
Binding Assay for Estimating Binding Affinity of Compounds to Human IL-23R
The compound binding affinity for IL-23R was estimated by the ability of compounds to displace a fluorophore-labelled reference compound from the human IL-23R. The assay principle relies on Bioluminescence Resonance Energy Transfer (BRET) between a fluorophore-labelled reference compound binding to the IL-23R part of a fusion protein consisting of the IL-23R fused to a Nanoluc luciferase enzyme (Nanoluc). The Nanoluc is placed in the N-terminus in close proximity to the binding domain of the ligand. Upon close proximity between the fluorophore of the fluorophore-labelled compound and the Nanoluc of the fusion protein, bioluminescence energy generated from conversion of a Nanoluc substrate, is transferred to the fluorophore resulting in an increase in BRET. In presence of an unlabelled compound, the unlabelled compound displaces the fluorophore-labelled peptide from its binding site resulting in a decrease in BRET. The concentration for which half of the fluorophore-labelled peptide is displaced by the unlabelled compound depends on the affinity of the compound for the IL-23R, and is termed the IC50 concentration. An estimated affinity (K) of the unlabelled compound for the IL-23R may be calculated using the Cheng-Prussov equation, which takes into account the concentration of the fluorophore-labelled compound used, and the affinity of the fluorophore-labelled compound for IL-23R.
The plasmid also contained a gene to confer resistance for the antibiotic hygromycin. A cell line stably expressing the Nluc-IL23R fusion protein was generated by transfection of HEK293 cells with the expression plasmid and selected with hygromycin for 3 weeks in Growth medium consisting of DMEM w/Glutamax-I containing, 10% V/V FBS, 1% V/V P/S, 1 mM Sodium Pyruvate, and 1×NEAA, and 0.3 mg/mL hygromycin. The remaining cells were propagated and considered a stable expressing Nluc-IL23R fusion protein pool clone.
Cells expressing the Nluc-IL23R fusion protein were expanded in Growth medium and membranes prepared by homogenization of a cell pellet from 18 T175 flasks (4° C. in subsequent steps). The cell pellet was lysed Tris 10 mM, 7.5, 1 mM EDTA and protease inhibitors (Complete, Roche) and homogenized using a 15 mL glass-dounce by 50 strokes. The homogenate was spun at spin @1500 rpm for 10 min, the supernatant transferred to SV-34 tubes and spun at 40000 g for 20 min at 4° C. to pellet the crude membranes. The supernatant was then removed, the pellet resuspended in 5 mL buffer containing 50 mM HEPES pH 7.4, 5 mM EGTA, and 5 mM MgCl2, and homogenized. Aliquots of the resuspended and homogenized membranes containing the Nluc-IL23R fusion protein were stored at −80° C. until use.
The plate was sealed with light impermeable plate seals, and incubated on a orbital shaker 400 rpm for 2 hours at room temperature. To determine the BRET ratio, the plate seal was removed and 25 μL of the Nanoluc substrate (Promega N1572) diluted 1:500 was added to each well and incubated for 1-2 minutes on an orbital shaker at 400 rpm. […] The BRET ratio was calculated as the fluorescence from the TAMRA/nanoluc bioluminescence. The IC50 for each compound was determined by computer-aided curve fitting using a 4-parameter logistic (4PL) non-linear model.

Setting [1] is: Table 3-1, read-out: Ki hIL-23R.

Where two headings read alike, the source gives them in different places. *1 amine or outer side, *2 acyl side, *3 side chain or, on linkers, in order; H or OH if unused. Where a SMILES comes first, the peptide text is derived from it. Bridges are numbered along the chain shown (N, C = ends). [ ]: non-standard residue; d: D form. The star is where a group is joined. Me3N+(CH2)2O(CH2)2O(CH2)2CO = C[N+](C)(C)CCOCCOCCC(=O)*; Trp(4-F) = N[C@@H](Cc1c[nH]c2cccc(F)c12)C(=O)O; 2Nal = N[C@@H](Cc1ccc2ccccc2c1)C(=O)O; AEF = NCCOc1ccc(C[C@H](N)C(=O)O)cc1; X1 = O=C(Cc1ccc(CN[*:1])cc1)[*:2]; 4Pal = N[C@@H](Cc1ccncc1)C(=O)O; d3Pal = N[C@H](Cc1cccnc1)C(=O)O; αMeL = CC(C)C[C@](C)(N)C(=O)O; CH2COCH2 = O=C(C[*:1])C[*:2]; 3Amb = NCc1cccc(C(=O)O)c1; dDab = NCC[C@@H](N)C(=O)O; Dab = NCC[C@H](N)C(=O)O; βAla = NCCC(=O)O

A word on the Ki: it is the dissociation constant of the complex between target and ligand, obtained from inhibition or displacement. On to `CC(C)C[C@]1(C)NC(=O)[C@H](Cc2ccc3ccccc3c2)NC(=O)[C@H](Cc2ccc(OCCN)cc2)NC(=O)[C@@H]2CSCC(=O)CSC[C@H](NC(=O)[C@H](CO)NC(=O)Cc3ccc(cc3)CNC(=O)CC[C@@H](C(=O)N[C@H](CCNC(=O)CCOCCOCC[N+](C)(C)C)C(N)=O)NC1=O)C(=O)N[C@@H](Cc1c[nH]c3ccccc13)C(=O)N[C@@H](CCC(N)=O)C(=O)N2` [Compound 109, [4-Aminomethyl-phenylacetyl](1c)*SC(2a)WQC(2a)[Y(2-aminoethoxy)][2-Nal][2-Me-Leu]E(1c)[{d}2,4-Diaminobutanoyl([2-(trimethyl-2-aminoethoxy)ethoxy]propyl)]-[NH2]] ([X1]SCWQC[AEF][2Nal][αMeL]E[dDab](Me3N+(CH2)2O(CH2)2O(CH2)2CO)-NH2; linker 3-6 via CH2COCH2; lactam N-10), for which the Ki under setting [1] was 0.46 nM.

On to `CC(C)C[C@]1(C)NC(=O)[C@H](Cc2ccc3ccccc3c2)NC(=O)[C@H](Cc2ccc(OCCN)cc2)NC(=O)[C@@H]2CSCC(=O)CSC[C@H](NC(=O)[C@H](CO)NC(=O)c3cccc(c3)CNC(=O)CC[C@@H](C(=O)N[C@@H](CCCNC(=N)N)C(=O)N[C@H](Cc3cccnc3)C(N)=O)NC1=O)C(=O)N[C@@H](Cc1c[nH]c3ccccc13)C(=O)N[C@@H](CCC(N)=O)C(=O)N2` [Compound 150, [(3-Aminomethyl)benzoyl](1c)*SC(2a)WQC(2a)][Y(2-aminoethoxy)][2-Nal][2-Me-Leu]E(1c)R[{d}[3-(3-Pyridyl)-Ala]]-[NH2]] ([3Amb]SCWQC[AEF][2Nal][αMeL]ER[d3Pal]-NH2; linker 3-6 via CH2COCH2; lactam N-10), for which the Ki under setting [1] is 0.597 nM.

In the case of `CC(C)C[C@]1(C)NC(=O)[C@H](Cc2ccc3ccccc3c2)NC(=O)[C@H](Cc2ccc(OCCN)cc2)NC(=O)[C@@H]2CSCC(=O)CSC[C@H](NC(=O)[C@H](CO)NC(=O)c3cccc(c3)CNC(=O)CC[C@@H](C(=O)N[C@@H](CCCNC(=N)N)C(=O)N[C@@H](Cc3ccncc3)C(N)=O)NC1=O)C(=O)N[C@@H](Cc1c[nH]c3ccccc13)C(=O)N[C@@H](CCC(N)=O)C(=O)N2` [Compound 79, [(3-Aminomethyl)benzoyl](1c)*SC(2a)WQC(2a)[Y(2-aminoethoxy)][2-Nal][2-Me-Leu]E(1c)R[3-(4-Pyridyl)-Ala]-[NH2]] ([3Amb]SCWQC[AEF][2Nal][αMeL]ER[4Pal]-NH2; linker 3-6 via CH2COCH2; lactam N-10), the Ki under setting [1] is 2.09 nM.

`CC(C)C[C@]1(C)NC(=O)[C@H](Cc2c[nH]c3ccccc23)NC(=O)[C@H](Cc2c[nH]c3ccccc23)NC(=O)[C@@H]2CSCC(=O)CSC[C@H](NC(=O)[C@H]([C@@H](C)O)NC(=O)[C@@H](NC(=O)CN)CSCC(=O)CSC[C@@H](C(=O)N[C@@H](CO)C(N)=O)NC1=O)C(=O)N[C@@H](Cc1c[nH]c3ccccc13)C(=O)N[C@@H](CCC(=O)O)C(=O)N2` (single isomer, unassigned) [I5 (isomer 3), H-GC(1a)TC(2a)WEC(2a)WW[2-Me-Leu]C(1a)S-[NH2], reference compound]: the “potency for IL-23R (in words)” value (in comparison with Protagonist's Compound C) was “lower potency”.

Consider `CC(C)C[C@]1(C)NC(=O)[C@H](Cc2ccc3ccccc3c2)NC(=O)[C@H](Cc2ccc(OCCN)cc2)NC(=O)[C@@H]2CSCC(=O)CSC[C@H](NC(=O)[C@H](CO)NC(=O)Cc3ccc(cc3)CNC(=O)CC[C@@H](C(=O)N[C@@H](CCCNC(=N)N)C(N)=O)NC1=O)C(=O)N[C@@H](Cc1c[nH]c3ccccc13)C(=O)N[C@@H](CCC(N)=O)C(=O)N2` [Compound 52, [4-Aminomethyl-phenylacetyl](1c)*SC(2a)WQC(2a)[Y(2-aminoethoxy)][2-Nal][2-Me-Leu]E(1c)R-[NH2]] ([X1]SCWQC[AEF][2Nal][αMeL]ER-NH2; linker 3-6 via CH2COCH2; lactam N-10), for which the Ki (hIL-23R, Ki from IC50 by Cheng-Prusoff equation, read-out: Ki determined affinity) was 0.057 nM.

Turning to `CC(C)C[C@]1(C)NC(=O)[C@H](Cc2ccc3ccccc3c2)NC(=O)[C@H](Cc2ccc(OCCN)cc2)NC(=O)[C@@H]2CSCC(=O)CSC[C@H](NC(=O)[C@H](CO)NC(=O)Cc3ccc(cc3)CNC(=O)CC[C@@H](C(=O)NCCC(N)=O)NC1=O)C(=O)N[C@@H](Cc1c[nH]c3ccccc13)C(=O)N[C@@H](CCC(N)=O)C(=O)N2` [Compound 119, [4-Aminomethyl-phenylacetyl](1c)*SC(2a)WQC(2a)[Y(2-aminoethoxy)][2-Nal][2-Me-Leu]E(1c)[3-Aminopropanoyl]-[NH2]] ([X1]SCWQC[AEF][2Nal][αMeL]E[βAla]-NH2; linker 3-6 via CH2COCH2; lactam N-10), the Ki under setting [1] was 0.303 nM.

As to `CC(C)C[C@]1(C)NC(=O)[C@H](Cc2ccc3ccccc3c2)NC(=O)[C@H](Cc2ccc(OCCN)cc2)NC(=O)[C@@H]2CSCC(=O)CSC[C@H](NC(=O)[C@H](CO)NC(=O)Cc3ccc(cc3)CNC(=O)CC[C@@H](C(=O)N[C@H](Cc3c[nH]cn3)C(N)=O)NC1=O)C(=O)N[C@@H](Cc1c[nH]c3ccccc13)C(=O)N[C@@H](CCC(N)=O)C(=O)N2` [Compound 117, [4-Aminomethyl-phenylacetyl](1c)*SC(2a)WQC(2a)[Y(2-aminoethoxy)][2-Nal][2-Me-Leu]E(1c)[{d}H]-[NH2]] ([X1]SCWQC[AEF][2Nal][αMeL]E[dH]-NH2; linker 3-6 via CH2COCH2; lactam N-10), the Ki under setting [1] is 0.188 nM.

With `CC(C)[C@]1(C)NC(=O)[C@H](Cc2ccc3ccccc3c2)NC(=O)[C@H](Cc2ccc(OCCN)cc2)NC(=O)[C@@H]2CCNC(=O)CC[C@H](NC(=O)[C@H](CO)NC(=O)Cc3ccc(cc3)CNC(=O)CC[C@@H](C(=O)N[C@@H](CCN)C(N)=O)NC1=O)C(=O)N[C@@H](Cc1c[nH]c3ccccc13)C(=O)N[C@@H](CCC(N)=O)C(=O)N2` [Compound 136, [4-Aminomethyl-phenylacetyl](1c)*SE(2c)WQ[Dab](2c)[Y(2-aminoethoxy)][2-Nal][2-Me-Val]E(1c)[Dab]-[NH2]], the inhibitory constant (Ki) under setting [1] is 0.17 nM.

As for `CC(C)C[C@]1(C)NC(=O)[C@H](Cc2ccc3ccccc3c2)NC(=O)[C@H](Cc2ccc(OCCN)cc2)NC(=O)[C@@H]2CCC(=O)NCCC[C@H](NC(=O)[C@H](CO)NC(=O)c3cccc(c3)CNC(=O)CC[C@@H](C(=O)N[C@@H](CCCNC(=N)N)C(N)=O)NC1=O)C(=O)N[C@@H](Cc1c[nH]c3ccccc13)C(=O)N[C@@H](CCC(N)=O)C(=O)N2` (relative stereo) [Compound 68, [(3-Aminomethyl)benzoyl](1c)*S[Orn](2c)WQE(2c)[Y(2-aminoethoxy)][2-Nal][2-Me-Leu]E(1c)R-[NH2]], the Ki under setting [1] was 3.32 nM.

For the molecule `CC(C)C[C@]1(C)NC(=O)[C@H](Cc2ccc3ccccc3c2)NC(=O)[C@H](Cc2ccc(OCCN)cc2)NC(=O)[C@@H]2CCNC(=O)CC[C@H](NC(=O)[C@H](CO)NC(=O)Cc3ccc(cc3)CNC(=O)CC[C@@H](C(=O)N[C@@H](CCN)C(N)=O)NC1=O)C(=O)N[C@@H](Cc1c[nH]c3cccc(F)c13)C(=O)N[C@@H](CCC(N)=O)C(=O)N2` [Compound 138, [4-Aminomethyl-phenylacetyl](1c)*SE(2c)[4-F-Trp]Q[Dab](2c)[Y(2-aminoethoxy)][2-Nal][2-Me-Leu]E(1c)[Dab]-[NH2]] ([X1]SE[Trp(4-F)]Q[Dab][AEF][2Nal][αMeL]E[Dab]-NH2; lactam 3-6, N-10), the Ki under setting [1] was 0.723 nM.
